Patent US20230150979A1, “AMIDE-DISUBSTITUTED PYRIDINE OR PYRIDAZINE COMPOUNDS” (BRISTOL-MYERS SQUIBB COMPANY, priority 2019, published 2023)

Tested on: IFNα-induced STAT phosphorylation (pSTAT5) in human whole blood, CD3 positive population
Experiment: IFNα-Induced STAT Phosphorylation in Human Whole Blood
Assay type: cell-based
Details: 1 h incubation with compound, 1000 U/mL recombinant human IFNα A/D for 15 min, pSTAT5 (pY694) median fluorescence in CD3 positive cells, read-out: Human WB IFNα-Induced Stat Phosph. (IC50)
Experimental: IFNα-Induced STAT Phosphorylation in Human Whole Blood
After an hour long incubation with compound, human whole blood (drawn with either EDTA or ACD-A as anti-coagulant) was stimulated with 1000 U/mL recombinant human IFNα A/D (R&D Systems 11200-2) for 15 min. The stimulation was stopped by adding Fix/Lyse buffer (BD 558049). Cells were stained with a CD3 FITC antibody (BD 555916), washed, and permeabilized on ice using Perm III buffer (BD 558050). Cells were then stained with an Alexa-Fluor 647 pSTAT5 (pY694) antibody (BD 612599) for 30 min prior to analysis on the FACS Canto II. The amount of pSTAT5 expression was quantitated by median fluorescence intensity after gating on the CD3 positive population.

COC(=O)Nc1cc(Nc2cccc(-c3ncn(C)n3)c2OC)c(C(N)=O)nn1 [Example 1, Methyl (6-carbamoyl-5-((2-methoxy-3-(1-methyl-1H-1,2,4-triazol-3-yl)phenyl)amino)pyridazin-3-yl)carbamate]
IC50: 0.07 µM

[2H]C([2H])([2H])NC(=O)c1nnc(NC(=O)NCC)cc1Nc1cccc(-c2noc(C)n2)c1OC [Example 2, 6-(3-ethylureido)-4-((2-methoxy-3-(5-methyl-1,2,4-oxadiazol-3-yl)phenyl)amino)-N-(trideuteromethyl)pyridazine-3-carboxamide]
IC50: 0.11 µM

[2H]C([2H])([2H])NC(=O)c1nnc(NC(=O)NC)cc1Nc1cccc(-c2noc(C)n2)c1OC [Example 3, 4-((2-methoxy-3-(5-methyl-1,2,4-oxadiazol-3-yl)phenyl)amino)-N-(trideuteromethyl)-6-(3-methylureido)pyridazine-3-carboxamide]
IC50: 0.19 µM

[2H]C([2H])([2H])NC(=O)c1nnc(NC(=O)OC)cc1Nc1ccccc1S(C)(=O)=O [Example 4, methyl (6-((methyl-d3)carbamoyl)-5-((2-(methylsulfonyl)phenyl)amino)pyridazin-3-yl)carbamate]
IC50: > 10 µM

[2H]C([2H])([2H])NC(=O)c1nnc(NC(=O)OC)cc1Nc1ccccc1NS(=O)(=O)C1CC1 [Example 5, methyl (5-((2-(cyclopropanesulfonamido)phenyl)amino)-6-((methyl-d3)carbamoyl)pyridazin-3-yl)carbamate]
IC50: 0.75 µM

CNC(=O)c1cnc(NC(=O)Nc2ccccc2)cc1Nc1ccccc1S(C)(=O)=O [Example 6, N-methyl-4-((2-(methylsulfonyl)phenyl)amino)-6-(3-phenylureido)nicotinamide]
IC50: > 10 µM

[2H]C([2H])([2H])NC(=O)c1nnc(NC(N)=O)cc1Nc1cccc(-c2ncn(C)n2)c1OC [Example 7, 4-((2-methoxy-3-(1-methyl-1H-1,2,4-triazol-3-yl)phenyl)amino)-N-(methyl-d3)-6-ureidopyridazine-3-carboxamide]
IC50: 0.32 µM

[2H]C([2H])([2H])NC(=O)c1cnc(NC(=O)OCC)cc1Nc1cccc(-c2noc(C)n2)c1OC [Example 8]
IC50: 0.3 µM

CCNC(=O)Nc1cc(Nc2ccccc2S(C)(=O)=O)c(C(=O)NC)cn1 [Example 9]
IC50: 1.1 µM

CNC(=O)Nc1cc(Nc2ccccc2S(C)(=O)=O)c(C(=O)NC)cn1 [Example 10]
IC50: 3.69 µM

[2H]C([2H])([2H])NC(=O)c1nnc(NC(=O)NCC#C)cc1Nc1cccc(-c2ncn(C)n2)c1OC [Example 11]
IC50: 0.06 µM

[2H]C([2H])([2H])NC(=O)c1nnc(NC(=O)N2CCCCC2)cc1Nc1cccc(-c2ncn(C)n2)c1OC [Example 12]
IC50: 0.61 µM

[2H]C([2H])([2H])NC(=O)c1nnc(NC(=O)OC)cc1Nc1cccc(-c2noc(COC)n2)c1OC [Example 14]
IC50: 1.1 µM

[2H]C([2H])([2H])NC(=O)c1nnc(NC(=O)NCC)cc1Nc1ccccc1S(C)(=O)=O [Example 15]
IC50: 0.52 µM

[2H]C([2H])([2H])NC(=O)c1nnc(NC(=O)NCC)cc1Nc1cccc(-c2ncn(C)n2)c1OC [Example 16]
IC50: 0.02 µM

[2H]C([2H])([2H])NC(=O)c1nnc(NC(=O)NC(C)C)cc1Nc1cccc(-c2ncn(C)n2)c1OC [Example 18]
IC50: 0.15 µM

[2H]C([2H])([2H])NC(=O)c1nnc(N2CCOC2=O)cc1Nc1cccc(-c2ncc(N3CCOC3=O)cn2)c1OC [Example 20]
IC50: > 10 µM

[2H]C([2H])([2H])NC(=O)c1cnc(NC(=O)OCC)cc1Nc1cccc(-c2nnn(C)n2)c1OC [Example 21]
IC50: 0.42 µM

[2H]C([2H])([2H])NC(=O)c1nnc(NC(=O)N(C)C)cc1Nc1cccc(-c2ncn(C)n2)c1OC [Example 22]
IC50: 0.22 µM

[2H]C([2H])([2H])NC(=O)c1nnc(NC(=O)NCCCC)cc1Nc1cccc(-c2ncn(C)n2)c1OC [Example 23]
IC50: 0.15 µM

[2H]C([2H])([2H])NC(=O)c1nnc(NC(=O)NC(C)(C)C)cc1Nc1cccc(-c2ncn(C)n2)c1OC [Example 24]
IC50: 0.23 µM

[2H]C([2H])([2H])NC(=O)c1nnc(NC(=O)Nc2ccccn2)cc1Nc1cccc(-c2ncn(C)n2)c1OC [Example 25]
IC50: 1.18 µM

[2H]C([2H])([2H])NC(=O)c1nnc(NC(=O)N2CCOCC2)cc1Nc1cccc(-c2ncn(C)n2)c1OC [Example 26]
IC50: 1.18 µM

[2H]C([2H])([2H])NC(=O)c1nnc(NC(=O)NCCOC)cc1Nc1cccc(-c2ncn(C)n2)c1OC [Example 27]
IC50: 0.14 µM

[2H]C([2H])([2H])NC(=O)c1nnc(NC(=O)N2CCNCC2)cc1Nc1cccc(-c2ncn(C)n2)c1OC [Example 28]
IC50: > 10 µM

[2H]C([2H])([2H])NC(=O)c1cnc(NC(=O)OCC)cc1Nc1cccc(-c2ncn(C)n2)c1OC [Example 29]
IC50: 0.11 µM

[2H]C([2H])([2H])NC(=O)c1cnc(NC(=O)OC)cc1Nc1cccc(-c2ncn(C)n2)c1OC [Example 30]
IC50: 0.1 µM

[2H]C([2H])([2H])NC(=O)c1cnc(NC(=O)OC(C)C)cc1Nc1cccc(-c2ncn(C)n2)c1OC [Example 32]
IC50: 0.2 µM

[2H]C([2H])([2H])NC(=O)c1nnc(NC(=O)NC2CCCCC2)cc1Nc1cccc(-c2ncn(C)n2)c1OC [Example 33]
IC50: 0.12 µM

[2H]C([2H])([2H])NC(=O)c1nnc(NC(=O)Nc2ccccc2)cc1Nc1cccc(-c2ncn(C)n2)c1OC [Example 34]
IC50: 0.52 µM

[2H]C([2H])([2H])NC(=O)c1nnc(NC(=O)Nc2cccc(C)c2)cc1Nc1cccc(-c2ncn(C)n2)c1OC [Example 35]
IC50: 0.5 µM

[2H]C([2H])([2H])NC(=O)c1nnc(NC(=O)NCC(C)C)cc1Nc1cccc(-c2ncn(C)n2)c1OC [Example 36]
IC50: 0.15 µM

[2H]C([2H])([2H])NC(=O)c1nnc(NC(=O)NCC=C)cc1Nc1cccc(-c2ncn(C)n2)c1OC [Example 37]
IC50: 0.06 µM

[2H]C([2H])([2H])NC(=O)c1cnc(NC(=O)OC)cc1Nc1cccc(-c2nnn(C)n2)c1OC [Example 38]
IC50: 0.13 µM

[2H]C([2H])([2H])NC(=O)c1nnc(NC(=O)N(C)CCc2ccccc2)cc1Nc1cccc(-c2ncn(C)n2)c1OC [Example 39]
IC50: 2.46 µM

[2H]C([2H])([2H])NC(=O)c1nnc(NC(=O)NCc2ccccc2)cc1Nc1cccc(-c2ncn(C)n2)c1OC [Example 40]
IC50: 0.29 µM

[2H]C([2H])([2H])NC(=O)c1nnc(NC(=O)OC)cc1Nc1cccc(-c2ncn(C)n2)c1OC [Example 41]
IC50: 0.21 µM

[2H]C([2H])([2H])NC(=O)c1nnc(NC(=O)N(C)CC)cc1Nc1cccc(-c2ncn(C)n2)c1OC [Example 42]
IC50: 0.35 µM

[2H]C([2H])([2H])NC(=O)c1nnc(NC(=O)N(C)CCOC)cc1Nc1cccc(-c2ncn(C)n2)c1OC [Example 43]
IC50: 0.57 µM

[2H]C([2H])([2H])NC(=O)c1nnc(NC(=O)N(C)CCC)cc1Nc1cccc(-c2ncn(C)n2)c1OC [Example 44]
IC50: 0.33 µM

[2H]C([2H])([2H])NC(=O)c1nnc(NC(=O)NC)cc1Nc1cccc(-c2ncn(C)n2)c1OC [Example 45]
IC50: 0.08 µM

[2H]C([2H])([2H])NC(=O)c1nnc(NC(=O)N(C)C2CC2)cc1Nc1cccc(-c2ncn(C)n2)c1OC [Example 46]
IC50: 2.21 µM

[2H]C([2H])([2H])NC(=O)c1nnc(NC(=O)N(C)CC(=C)C)cc1Nc1cccc(-c2ncn(C)n2)c1OC [Example 47]
IC50: 0.43 µM

[2H]C([2H])([2H])NC(=O)c1nnc(NC(=O)NC(C)CC)cc1Nc1cccc(-c2ncn(C)n2)c1OC (stereo not shown) [Example 48]
IC50: 0.2 µM

[2H]C([2H])([2H])NC(=O)c1nnc(NC(=O)N(C)Cc2ccco2)cc1Nc1cccc(-c2ncn(C)n2)c1OC [Example 49]
IC50: 0.19 µM

[2H]C([2H])([2H])NC(=O)c1cnc(NC(=O)OCCC)cc1Nc1cccc(-c2ncn(C)n2)c1OC [Example 50]
IC50: 0.15 µM

COC(=O)Nc1cc(Nc2cccc(-c3noc(CN(C)S(C)(=O)=O)n3)c2OC)c(C(N)=O)nn1 [Example 51]
IC50: 0.09 µM

[2H]C([2H])([2H])NC(=O)c1nnc(NC(=O)OC)cc1Nc1ccccc1NS(C)(=O)=O [Example 52]
IC50: > 10 µM

[2H]C([2H])([2H])NC(=O)c1nnc(NC(=O)OC)cc1Nc1cccc(-c2ncc(C(=O)N(C)C)s2)c1OC [Example 53]
IC50: 0.84 µM

COC(=O)Nc1cc(Nc2cccc(-c3noc(CN4CCCCS4(=O)=O)n3)c2OC)c(C(N)=O)nn1 [Example 54]
IC50: 0.03 µM

[2H]C([2H])([2H])NC(=O)c1nnc(NC(=O)OC)cc1Nc1cccc(-c2ncc(C(=O)N3CCC3)s2)c1OC [Example 55]
IC50: 0.76 µM

COC(=O)Nc1cc(Nc2cccc(-c3noc(CN4CCOCC4)n3)c2OC)c(C(N)=O)nn1 [Example 56]
IC50: 0.11 µM

[2H]C([2H])([2H])NC(=O)c1nnc(NC(=O)OC)cc1Nc1cccc(-c2ncc(C(=O)N3CCC(N4CCN(CCO)CC4)CC3)s2)c1OC [Example 57]
IC50: 0.25 µM

[2H]C([2H])([2H])NC(=O)c1nnc(NC(=O)OC)cc1Nc1cccc(-c2noc(CO)n2)c1OC [Example 58]
IC50: 1.86 µM

[2H]C([2H])([2H])NC(=O)c1nnc(NC(=O)OC)cc1Nc1cccc(-c2noc(CN3CCOCC3)n2)c1OC [Example 59]
IC50: 0.29 µM

COC(=O)Nc1cc(Nc2cccc(-c3noc(CN4CCN(C(=O)OC)CC4)n3)c2OC)c(C(N)=O)nn1 [Example 60]
IC50: 0.14 µM

[2H]C([2H])([2H])NC(=O)c1nnc(NC(=O)OC)cc1Nc1cccc(-c2noc(CN3CCCCS3(=O)=O)n2)c1OC [Example 61]
IC50: 0.06 µM

[2H]C([2H])([2H])NC(=O)c1nnc(NC(=O)OC)cc1Nc1cccc(-c2noc(CN(C)S(C)(=O)=O)n2)c1OC [Example 62]
IC50: 0.1 µM
